Assay results: the supplement of paper PMC13380429

Key:
U2OS [1] = test: cell viability relative to DMSO; higher = less toxic; details: 72 h
Vero E6 [2] = test: as above; details: 72 h
HepG2 [3] = test: as above; details: 72 h
Caco-2 [4] = test: as above; details: 72 h
Calu-3 [5] = test: as above; details: 72 h
[6] = system: A549-ACE2 infected with SARS-CoV-2; test: morphology score (similarity to uninfected cells); higher = more like uninfected cells; details: 24 h
A549-ACE2 [7] = test: phospholipidosis EC50; higher = less potent phospholipidosis inducer
[8] = system: A549-ACE2 infected with SARS-CoV-2; test: SARS-CoV-2 infection rate relative to DMSO; higher = more infection; details: 24 h
U2OS [9] = test: relative viability EC50 (midpoint between 100% and the lowest measured viability); higher = less toxic; details: 72 h
Vero E6 [10] = test: as above; details: 72 h
HepG2 [11] = test: as above; details: 72 h
Caco-2 [12] = test: as above; details: 72 h
A549-ACE2 [13] = test: drug-induced phospholipidosis relative to tamoxifen; higher = more phospholipidosis
U2OS [14] = test: drug sensitivity score (DSS) for viability; higher = more toxic; extreme values may be limits of the assay; details: 72 h
Vero E6 [15] = test: as above; details: 72 h
HepG2 [16] = test: as above; details: 72 h
Caco-2 [17] = test: as above; details: 72 h
Calu-3 [18] = test: as above; details: 72 h
[19] = system: A549-ACE2 infected with SARS-CoV-2; test: cell count relative to DMSO; higher = less toxic; details: 24 h
Calu-3 [20] = test: relative viability EC50 (midpoint between 100% and the lowest measured viability); higher = less toxic; details: 72 h

Fc1cc(-c2cccc3ncc(-c4cnn(C5CCNCC5)c4)nc23)cc(F)c1CN1CCOCC1 [NVP-BSK805]
Details | SARS-CoV-2 infection rate [%] | cell count [%] | cell viability [%] | morphology score | phospholipidosis EC50 [µM]
A549-ACE2 [7], 24 h | – | – | – | – | 3.94
A549-ACE2 [7], 48 h | – | – | – | – | 9.74
A549-ACE2 [7], 72 h | – | – | – | – | 4.49
Caco-2 [4], 1 nM | – | – | 99.5 | – | –
Caco-2 [4], 10 nM | – | – | 98.8 | – | –
Caco-2 [4], 100 nM | – | – | 104 | – | –
Caco-2 [4], 1000 nM | – | – | 105 | – | –
Caco-2 [4], 10000 nM | – | – | 39.8 | – | –
Calu-3 [5], 1 nM | – | – | 99.5 | – | –
Calu-3 [5], 10 nM | – | – | 97.2 | – | –
Calu-3 [5], 100 nM | – | – | 95 | – | –
Calu-3 [5], 1000 nM | – | – | 104 | – | –
Calu-3 [5], 10000 nM | – | – | 69.6 | – | –
HepG2 [3], 1 nM | – | – | 106 | – | –
HepG2 [3], 10 nM | – | – | 110 | – | –
HepG2 [3], 100 nM | – | – | 96.2 | – | –
HepG2 [3], 1000 nM | – | – | 93.1 | – | –
HepG2 [3], 10000 nM | – | – | 35.8 | – | –
U2OS [1], 1 nM | – | – | 101 | – | –
U2OS [1], 10 nM | – | – | 101 | – | –
U2OS [1], 100 nM | – | – | 97.6 | – | –
U2OS [1], 1000 nM | – | – | 97.2 | – | –
U2OS [1], 10000 nM | – | – | 22.9 | – | –
Vero E6 [2], 1 nM | – | – | 97.9 | – | –
Vero E6 [2], 10 nM | – | – | 102 | – | –
Vero E6 [2], 100 nM | – | – | 100 | – | –
Vero E6 [2], 1000 nM | – | – | 99.9 | – | –
Vero E6 [2], 10000 nM | – | – | 48.4 | – | –
[6], 0.1 µM | – | – | – | 0.17 | –
[6], 0.3 µM | – | – | – | 0.13 | –
[6], 1 µM | – | – | – | 0.47 | –
[6], 3 µM | – | – | – | 0.68 | –
[8], 0.1 µM | 96 | – | – | – | –
[8], 0.3 µM | 100 | – | – | – | –
[8], 1 µM | 86 | – | – | – | –
[8], 3 µM | 45 | – | – | – | –
[19], 0.1 µM | – | 102 | – | – | –
[19], 0.3 µM | – | 103 | – | – | –
[19], 1 µM | – | 105 | – | – | –
[19], 3 µM | – | 110 | – | – | –

Details | drug sensitivity score | relative viability EC50 [µM]
Caco-2 [12] | – | 3.55
Caco-2 [17] | 2.9 | –
Calu-3 [18] | 1.1 | –
HepG2 [11] | – | 2.28
HepG2 [16] | 4.6 | –
U2OS [9] | – | 2.9
U2OS [14] | 4.6 | –
Vero E6 [10] | – | 3.15
Vero E6 [15] | 2.7 | –

drug-induced phospholipidosis [%], A549-ACE2 [13]
Details | 0.3 µM | 0.833333 µM | 3.33333 µM | 6.66667 µM | 10 µM | 30 µM
24 h | 5.98 | 16 | 55.1 | 93.5 | 113 | 119
48 h | 2.53 | 10.2 | 51.2 | 101 | 134 | –
72 h | 5.16 | 6.57 | 55.6 | 119 | – | –

CN1CCN(Cc2ccc(-c3cnc4[nH]cc(-c5ccc6[nH]ccc6c5)c4c3)cc2)CC1 [URMC-099]
Details | SARS-CoV-2 infection rate [%] | cell count [%] | cell viability [%] | morphology score | phospholipidosis EC50 [µM]
A549-ACE2 [7], 24 h | – | – | – | – | 1.07
A549-ACE2 [7], 48 h | – | – | – | – | 4.29
A549-ACE2 [7], 72 h | – | – | – | – | 8.25
Caco-2 [4], 1 nM | – | – | 103 | – | –
Caco-2 [4], 10 nM | – | – | 107 | – | –
Caco-2 [4], 100 nM | – | – | 104 | – | –
Caco-2 [4], 1000 nM | – | – | 111 | – | –
Caco-2 [4], 10000 nM | – | – | 7.8 | – | –
Calu-3 [5], 1 nM | – | – | 93.1 | – | –
Calu-3 [5], 10 nM | – | – | 100 | – | –
Calu-3 [5], 100 nM | – | – | 95.3 | – | –
Calu-3 [5], 1000 nM | – | – | 128 | – | –
Calu-3 [5], 10000 nM | – | – | 111 | – | –
HepG2 [3], 1 nM | – | – | 111 | – | –
HepG2 [3], 10 nM | – | – | 89.8 | – | –
HepG2 [3], 100 nM | – | – | 95.8 | – | –
HepG2 [3], 1000 nM | – | – | 89.2 | – | –
HepG2 [3], 10000 nM | – | – | 5.3 | – | –
U2OS [1], 1 nM | – | – | 99 | – | –
U2OS [1], 10 nM | – | – | 95.5 | – | –
U2OS [1], 100 nM | – | – | 104 | – | –
U2OS [1], 1000 nM | – | – | 95.2 | – | –
U2OS [1], 10000 nM | – | – | 3.5 | – | –
Vero E6 [2], 1 nM | – | – | 92.9 | – | –
Vero E6 [2], 10 nM | – | – | 102 | – | –
Vero E6 [2], 100 nM | – | – | 95.4 | – | –
Vero E6 [2], 1000 nM | – | – | 105 | – | –
Vero E6 [2], 10000 nM | – | – | 0.9 | – | –
[6], 0.1 µM | – | – | – | 0.26 | –
[6], 0.3 µM | – | – | – | 0.37 | –
[6], 1 µM | – | – | – | 0.6 | –
[6], 3 µM | – | – | – | 0.68 | –
[8], 0.1 µM | 99 | – | – | – | –
[8], 0.3 µM | 102 | – | – | – | –
[8], 1 µM | 85 | – | – | – | –
[8], 3 µM | 18 | – | – | – | –
[19], 0.1 µM | – | 111 | – | – | –
[19], 0.3 µM | – | 105 | – | – | –
[19], 1 µM | – | 110 | – | – | –
[19], 3 µM | – | 108 | – | – | –

Details | drug sensitivity score | relative viability EC50 [µM]
Caco-2 [12] | – | 3.71
Caco-2 [17] | 4.4 | –
Calu-3 [18] | 0 | –
Calu-3 [20] | – | > 10
HepG2 [11] | – | 2.23
HepG2 [16] | 7 | –
U2OS [9] | – | 2.79
U2OS [14] | 6 | –
Vero E6 [10] | – | 3.45
Vero E6 [15] | 5.1 | –

drug-induced phospholipidosis [%], A549-ACE2 [13]
Details | 0.3 µM | 0.833333 µM | 3.33333 µM | 6.66667 µM | 10 µM
24 h | 3.77 | 15.4 | 149 | 143 | 136
48 h | 2.54 | 6.25 | 111 | 164 | 208
72 h | 3.51 | 1.18 | 69.5 | 69.5 | 200

CN1CC2c3ccccc3Oc3ccc(Cl)cc3C2C1 (stereo not given) [asenapine]
Details | SARS-CoV-2 infection rate [%] | cell count [%] | cell viability [%] | morphology score | phospholipidosis EC50 [µM]
A549-ACE2 [7], 24 h | – | – | – | – | 7.2
A549-ACE2 [7], 48 h | – | – | – | – | 7.65
A549-ACE2 [7], 72 h | – | – | – | – | 9.6
Caco-2 [4], 1 nM | – | – | 94.9 | – | –
Caco-2 [4], 10 nM | – | – | 108 | – | –
Caco-2 [4], 100 nM | – | – | 106 | – | –
Caco-2 [4], 1000 nM | – | – | 108 | – | –
Caco-2 [4], 10000 nM | – | – | 109 | – | –
Calu-3 [5], 1 nM | – | – | 94.9 | – | –
Calu-3 [5], 10 nM | – | – | 96.5 | – | –
Calu-3 [5], 100 nM | – | – | 90.8 | – | –
Calu-3 [5], 1000 nM | – | – | 104 | – | –
Calu-3 [5], 10000 nM | – | – | 89.2 | – | –
HepG2 [3], 1 nM | – | – | 112 | – | –
HepG2 [3], 10 nM | – | – | 106 | – | –
HepG2 [3], 100 nM | – | – | 103 | – | –
HepG2 [3], 1000 nM | – | – | 96.3 | – | –
HepG2 [3], 10000 nM | – | – | 96.7 | – | –
U2OS [1], 1 nM | – | – | 99.5 | – | –
U2OS [1], 10 nM | – | – | 105 | – | –
U2OS [1], 100 nM | – | – | 101 | – | –
U2OS [1], 1000 nM | – | – | 108 | – | –
U2OS [1], 10000 nM | – | – | 98.2 | – | –
[6], 0.3 µM | – | – | – | 0.2 | –
[6], 3 µM | – | – | – | 0.63 | –
[6], 10 µM | – | – | – | 0.71 | –
[6], 30 µM | – | – | – | 0.39 | –
[8], 0.3 µM | 94 | – | – | – | –
[8], 3 µM | 59 | – | – | – | –
[8], 10 µM | 32 | – | – | – | –
[8], 30 µM | 30 | – | – | – | –
[19], 0.3 µM | – | 102 | – | – | –
[19], 3 µM | – | 118 | – | – | –
[19], 10 µM | – | 109 | – | – | –
[19], 30 µM | – | 102 | – | – | –

Details | drug sensitivity score | relative viability EC50 [µM]
Caco-2 [12] | – | > 10
Caco-2 [17] | 0 | –
Calu-3 [18] | 0 | –
Calu-3 [20] | – | > 10
HepG2 [11] | – | > 10
HepG2 [16] | 0 | –
U2OS [9] | – | > 10
U2OS [14] | 0 | –

drug-induced phospholipidosis [%], A549-ACE2 [13]
Details | 0.3 µM | 0.833333 µM | 3.33333 µM | 6.66667 µM | 10 µM | 30 µM
24 h | 0.93 | 1.66 | 23.3 | 56.2 | 82.5 | 115
48 h | 2.52 | 0.05 | 14.9 | 49 | 77.2 | 111
72 h | 4.59 | 1.7 | 16.8 | 43.5 | 70.2 | 117
